Measured values published in patent publication US20070134753A1, “Assay for determining the activity of fatty acid amide hydrolase” (priority 2002, published 2007).
“And” between values parts separate entries of the source, which are not always exact repeats. Identical values can stand only once. Like-named read-outs stand apart in the source and are kept apart here. Values belong to the compound of their own block, whether it stands above or below them.

Legend:
[1] = target: T1, human FAAH (Homo sapiens, UniProt O00519); test: FAAH charcoal filter-plate assay with 3H-anandamide in T84 membranes; type: biochemical; conditions: for IC50 values (in words): product inhibition
T1 construct: T84 frozen pellets were homogenized in FAAH assay buffer; endogenous in cells; host or cells: T84 human colorectal carcinoma cells (ATCC CCL-248), homogenate/membranes
T1 sequence (O00519 1-579): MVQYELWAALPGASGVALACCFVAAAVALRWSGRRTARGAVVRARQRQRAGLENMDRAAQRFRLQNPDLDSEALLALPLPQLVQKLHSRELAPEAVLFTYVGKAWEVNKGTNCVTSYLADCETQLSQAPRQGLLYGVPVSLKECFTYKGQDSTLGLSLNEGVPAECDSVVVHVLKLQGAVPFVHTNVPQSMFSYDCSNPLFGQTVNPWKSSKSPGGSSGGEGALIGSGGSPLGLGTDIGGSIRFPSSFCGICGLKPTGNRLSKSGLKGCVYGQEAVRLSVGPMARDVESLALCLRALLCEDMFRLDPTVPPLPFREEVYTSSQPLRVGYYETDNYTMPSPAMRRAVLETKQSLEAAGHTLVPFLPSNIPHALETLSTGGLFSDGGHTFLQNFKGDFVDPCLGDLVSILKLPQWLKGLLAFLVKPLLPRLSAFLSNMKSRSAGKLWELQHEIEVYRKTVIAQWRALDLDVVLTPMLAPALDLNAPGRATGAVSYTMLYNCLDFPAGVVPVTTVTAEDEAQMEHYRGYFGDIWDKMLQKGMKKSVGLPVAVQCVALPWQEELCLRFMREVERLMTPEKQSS

[2] = target: T2, FAAH (Mus musculus, UniProt O08914); conditions: cited from earlier work
T2 construct: it abolished anandamide hydrolysis in N18 mouse neuroblastoma cells; host or cells: N18 mouse neuroblastoma cells
T2 sequence (O08914 1-579): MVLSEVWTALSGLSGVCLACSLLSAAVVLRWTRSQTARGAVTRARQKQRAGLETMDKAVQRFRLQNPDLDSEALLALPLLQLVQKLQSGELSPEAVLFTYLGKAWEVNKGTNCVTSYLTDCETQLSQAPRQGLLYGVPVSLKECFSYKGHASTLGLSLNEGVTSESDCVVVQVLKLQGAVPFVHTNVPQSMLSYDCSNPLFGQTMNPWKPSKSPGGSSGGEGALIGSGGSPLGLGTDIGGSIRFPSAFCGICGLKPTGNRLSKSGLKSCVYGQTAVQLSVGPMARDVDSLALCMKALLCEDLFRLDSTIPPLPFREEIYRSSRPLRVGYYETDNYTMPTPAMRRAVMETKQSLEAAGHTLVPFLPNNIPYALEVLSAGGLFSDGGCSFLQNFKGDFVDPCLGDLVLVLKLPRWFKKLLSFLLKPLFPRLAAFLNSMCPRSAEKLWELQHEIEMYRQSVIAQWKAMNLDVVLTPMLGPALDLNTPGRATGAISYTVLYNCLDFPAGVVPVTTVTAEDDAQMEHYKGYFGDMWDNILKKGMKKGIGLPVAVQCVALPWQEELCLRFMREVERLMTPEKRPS

[3] = target: T3, FAAH (Rattus norvegicus, UniProt P97612); conditions: cited from earlier work
T3 sequence (P97612 1-579): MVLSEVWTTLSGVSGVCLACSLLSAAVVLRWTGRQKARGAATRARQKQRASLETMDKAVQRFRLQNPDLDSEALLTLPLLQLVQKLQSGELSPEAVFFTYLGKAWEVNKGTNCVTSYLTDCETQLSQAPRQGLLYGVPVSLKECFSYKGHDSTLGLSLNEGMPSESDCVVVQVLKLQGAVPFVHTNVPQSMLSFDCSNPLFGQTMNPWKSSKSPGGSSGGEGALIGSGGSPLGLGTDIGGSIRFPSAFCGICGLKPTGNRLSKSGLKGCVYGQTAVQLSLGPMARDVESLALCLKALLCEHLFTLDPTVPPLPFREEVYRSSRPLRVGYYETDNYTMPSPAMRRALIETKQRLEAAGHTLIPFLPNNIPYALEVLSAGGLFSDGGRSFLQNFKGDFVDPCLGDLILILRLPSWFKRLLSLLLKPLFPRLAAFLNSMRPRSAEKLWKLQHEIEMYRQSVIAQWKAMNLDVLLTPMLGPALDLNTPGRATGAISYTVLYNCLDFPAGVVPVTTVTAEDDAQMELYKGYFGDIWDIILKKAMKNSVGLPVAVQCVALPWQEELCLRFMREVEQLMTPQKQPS

[4] = target: FAAH (Homo sapiens, UniProt O00519); conditions: human brain; Maccarrone et al. 1999; cited from earlier work
[5] = target: T3, FAAH; set-up: other: literature data; conditions: read-out: Literature (ref) IC50; cited from earlier work
[6] = T84 membranes, room temperature 60 min, average ± S.E. of 2-5 experiments, each in triplicate, read-out: IC50

IC50 values (in words) ([1]; T84 membranes): low micromolar range
IC50 [1, 6]: 0.931 ± 0.255 µM
Compound: CCCCC/C=C\C/C=C\C/C=C\C/C=C\CCCC(=O)O [Arachidonic acid]

IC50 values (in words) ([1]; T84 membranes): low micromolar range
IC50 [1, 6]: 1.94 ± 0.401 µM
Compound: CCCCCCCC/C=C\CCCCCCCC(=O)O [Oleic acid]

Compound: CCCCC/C=C\C/C=C\C/C=C\C/C=C\CCCC(=O)NCCO [anandamide, N-arachidonoylethanolamine]
Km ([1]; read-out: Km of hydrolysis by FAAH): 1.1 ± 0.17 µM
Km [2]: 9 µM
activity of FAAH [2]: abolished
Km [3]: 12.7 µM
Km [4]: 2 µM

Compound: O=S(=O)(F)Cc1ccccc1 [Phenylmethylsulfonyl fluoride]
IC50 ([1]; IC50): 16 µM
anandamide hydrolysis in N18 mouse neuroblastoma cells ([2]; at a concentration of 100 μM, Maurelli et al. 1995): abolished
inhibition of the hydrolysis of rat brain microsomal anandamide ([3]; at 25 μM, Desarnaud et al. 1995): 48%
IC50 [5]: 1.2 to 69 µM

Compound: CCCCCCCC/C=C\CCCCCCCCC(=O)C(F)(F)F [Oleyl trifluoromethyl ketone, oleyl trifluoromethyl ketone]
IC50 [5]: 0.039 µM and 0.024 to 0.041 µM
